The results in this text go back to ChEMBL document CHEMBL1152734, “Novel E. coli beta-ketoacyl-acyl carrier protein synthase III inhibitors as targeted antibiotics” (Bioorg Med Chem, 2009).

In test [1] the test system is Escherichia coli K-12. The experiment in a line: Binding affinity to Escherichia coli K12 KAS 3 expressed in Escherichia coli BL21 by STD-NMR spectroscopy.
Test [2] has as its system Enterococcus faecalis. The test can be described thus: Antimicrobial activity against Enterococcus faecalis KCTC 2011 after 20 hrs by twofold serial broth dilution method. In kind it is functional. Conditions: KCTC 2011, 20 h. A general note: In broth dilution the organism is exposed to a series of concentrations in liquid medium.
For test [3], the system named is Klebsiella pneumoniae. The experiment in a line: Antimicrobial activity against Klebsiella pneumoniae KCTC 2242 after 20 hrs by twofold serial broth dilution method. In kind it is functional. The settings on record: KCTC 2242, 20 h.
Test [4] deals with Staphylococcus aureus. The test can be described thus: Antimicrobial activity against Staphylococcus aureus KCTC 1621 after 20 hrs by twofold serial broth dilution method. In kind it is functional. Conditions: KCTC 1621, 20 h.
Test [5] deals with Escherichia coli. The experiment in a line: Antimicrobial activity against Escherichia coli KCTC 1682 after 20 hrs by twofold serial broth dilution method. In kind it is functional. The settings on record: KCTC 1682, 20 h.
The target of test [6] is T1, Beta-ketoacyl-[acyl-carrier-protein] synthase III (Escherichia coli K-12, UniProt P0A6R0).
T1 sequence (P0A6R0 whole entry): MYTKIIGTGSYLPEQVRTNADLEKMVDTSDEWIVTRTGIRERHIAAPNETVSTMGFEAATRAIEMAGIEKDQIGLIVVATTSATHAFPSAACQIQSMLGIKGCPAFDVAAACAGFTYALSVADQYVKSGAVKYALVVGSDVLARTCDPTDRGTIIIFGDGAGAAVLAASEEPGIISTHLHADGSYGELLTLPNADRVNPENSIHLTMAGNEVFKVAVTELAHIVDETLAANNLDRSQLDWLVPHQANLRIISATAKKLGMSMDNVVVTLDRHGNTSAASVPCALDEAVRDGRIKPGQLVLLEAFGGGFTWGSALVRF
The experiment in a line: Binding affinity to Escherichia coli K12 KAS 3 expressed in Escherichia coli BL21 by fluorescence quenching analysis.

Test [7] deals with Staphylococcus aureus. The test can be described thus: Antimicrobial activity against methicillin-resistant Staphylococcus aureus CCARM 3114 after 20 hrs by twofold serial broth dilution method. In kind it is functional. Conditions: CCARM 3114, 20 h.

Each structure is given as a SMILES string. ≈ marks a conversion by molar mass, not a printed value. Calls of active or inactive are those of the source. The calls are words filed in the database; no cut-off is given here.

The MIC is the least concentration at which growth counts as inhibited. Low values mean a more susceptible organism, high ones a less susceptible organism. As a reminder, the Kd is the constant that tells how readily two partners part at equilibrium. Consider `COc1ccc2c(c1OC)C(=O)OC2C(C)C(=O)c1ccc(O)c(O)c1` (stereo unspecified), for which the result in test [1] was Active. Further, the MIC in test [2], in test [3], in test [4], in test [5] and in test [7] was over 1020 µg/mL in each case. This compound also came in with a Kd in test [6] of 1.22 µM.

As for `Cn1ncc2c(Nc3ccccc3)nc(NCCCO)nc21`, the result in test [1] was Active. Besides, in test [6], the affinity, expressed as Kd, was 141 µM.

For `Cc1c(C(=O)O)cc(C(C)(C)C)n1CCSCc1c(F)cccc1Cl`, the result in test [1] was inactive.

As to `Cc1cc(C)nc(NS(=O)(=O)c2ccc(NC(=O)c3sc4ccccc4c3Cl)cc2)n1`, in test [1], the result was inactive.

With `Oc1ccc(/C=N/C2CCCCC2)c(O)c1`, the outcome in test [1] was Active. Moreover, the MIC in test [2] was 256 µg/mL (≈ 1170 µM); in test [3], 256 µg/mL (≈ 1170 µM); in test [4], 256 µg/mL (≈ 1170 µM); in test [5], 128 µg/mL (≈ 584 µM); in test [7] it was 128 µg/mL (≈ 584 µM). In addition, binding in test [6] was put at a Kd of 0.02 µM.

`C/C(=N\Nc1nc(C)cs1)c1cccc(O)c1`: the result in test [1] was Active. In addition, the MIC in test [2] is 256 µg/mL (≈ 1040 µM); in test [3], over 1020 µg/mL; in test [4] it was 256 µg/mL (≈ 1040 µM); in test [5], over 1020 µg/mL; in test [7], 256 µg/mL (≈ 1040 µM). This compound also yielded a Kd in test [6] of over 1000 µM.

For `CC(C)(CC(=O)O)CC(=O)NCCN1CCNC1=O`, the result in test [1] was Active. The Kd in test [6] is over 1000 µM.

As for `CCCc1cc(=O)oc2cc(OC(=O)c3ccccc3Cl)ccc12`, in test [1], the outcome was inactive.

As for `CC1CN(c2ccc(O)c(C(=O)O)c2)C(=S)NC1=O` (stereo unspecified), the result in test [1] was Active. Further, the Kd in test [6] is over 1000 µM.

With `COc1ccc2c(c1)CCC/C2=N/Nc1nc(C(=O)NN)cs1`, the outcome in test [1] was inactive.

As to `O=C(O)c1cc(NC(=O)c2ccccc2[N+](=O)[O-])ccc1O`, the outcome in test [1] was Active. Besides, in test [6], the Kd is over 1000 µM.

As for `C=C/C(C)=C/[C@@]1(C)SC(=O)C(C)=C1O` [THIOLACTOMYCIN], the outcome in test [1] was Active. Further, the MIC in test [2] stood at 256 µg/mL (≈ 1220 µM); in test [3], 256 µg/mL (≈ 1220 µM); in test [4], 256 µg/mL (≈ 1220 µM); in test [5], 128 µg/mL (≈ 609 µM); in test [7], 128 µg/mL (≈ 609 µM). The compound further displayed a Kd in test [6] of 121 µM.

For `CC1(O)N(CCC(N)=O)C(=O)OC12CCCCC2` (stereo unspecified), the result in test [1] was inactive.

`C=CCn1c(SCC(=O)Nc2ccc(S(N)(=O)=O)cc2)nnc1-c1ccc(Cl)cc1`: the outcome in test [1] was inactive.

In the case of `NS(=O)(=O)c1cccc(NC(=O)Nc2cccc(S(N)(=O)=O)c2)c1`, the result in test [1] was inactive.

On to `COc1ccc(NC(=O)CC(CC(=O)O)c2ccccc2)cc1` (stereo unspecified), for which, in test [1], the result was inactive.

For `C=CCSC1Nn2c(nnc(C)c2=O)S1` (stereo unspecified), the result in test [1] was Active. The same compound had a Kd in test [6] of over 1000 µM.
